Where two headings read alike, the source gives them in different places.
Key:
hCAII [1] = target: T1, hCAII (Homo sapiens, UniProt P00918); experiment: colorimetric p-nitrophenyl acetate hCAII activity assay; assay type: biochemical
T1 construct: made in house; host or cells: Escherichia coli BL21(DE3), pACA plasmid (gift from Carol A. Fierke)
Method: To verify that the p-sulfamoyl benzamide MBP retained its binding following ligation with the linker and bulky recruiting group moieties, the inhibition activity of each degrader candidate was determined using a colorimetric p-nitrophenol acetate hCAII activity assay.[46] In short, recombinantly expressed hCAII was preincubated with the degrader candidate before the addition of p-nitrophenyl acetate, a substrate that upon enzymatic cleavage leads to acetic acid and p-nitrophenolate.
Recombinant hCAII was expressed and purified according to the protocol reported in the Supporting Information. […] Wells were prepared to a final volume of 100 μL per well, including buffer (50 mM HEPES, pH 8.0), enzyme (hCAII, 40 nM), inhibitor (varying concentrations), and substrate (p-nitrophenyl acetate, 500 μM). Inhibitors and protein were preincubated for 10 min at rt, and the substrate was added to the reaction mixture immediately before reading. […] The rate of absorbance for each replicate was corrected for substrate autohydrolysis and inherent inhibitor absorbance by subtracting the rate of absorbance from a blank sample lacking enzyme but containing the inhibitor and substrate. Samples lacking inhibitor but containing enzyme and substrate were used to define 100% hCAII activity. Samples lacking inhibitor and enzyme were used to define 0% hCAII activity. IC50 was determined using non-linear regression with a variable slope on the GraphPad Prism software.

hCAII [2] = target: T2, hCAII (Homo sapiens, UniProt P00918+Q96SW2); experiment: single-point hCAII degradation screen in HEK293 cells, western blot; assay type: cell-based; conditions: 5 μM, 24 h; for activity in single-point screen (hCAII degradation): vs DMSO vehicle
T2 construct: HEK293 cells, a line known to abundantly express hCAII; endogenous in cells; host or cells: HEK293
Method: Following the confirmation of candidate hCAII’s in vitro activity, candidate degraders 1–10 were evaluated for their degradation of hCAII using HEK293 cells, a line known to abundantly express hCAII.[48] To obtain a preliminary evaluation of the activity of these compounds, an initial single-point screen was performed with HEK293 cells dosed with individual degrader candidates at a final concentration of 5 μM for 24 h prior to cell lysis. The relative abundance of hCAII in whole cell lysates was then evaluated via western blot analysis (see the Experimental Section for details).
Figure 2 Single-point activity screen of degrader candidates 1–10. Western blot analysis of HEK293 cells treated with degrader candidate (5 μM final concentration) or vehicle (DMSO) for 24 h. […] Degraders 4 and 5 were identified as active from this screen. Full images of the western blots are provided within the Supporting Information (Figure S1).
HEK293 cells were cultured in Dulbecco’s modified Eagle’s medium (DMEM, Gibco, 4.5 g/L glucose) supplemented with 10% fetal bovine serum (FBS), 1% sodium pyruvate, and 1% penicillin/streptomycin. Cells were grown at 37 °C in a humidified 5% CO2 atmosphere and regularly tested for mycoplasma.
After reaching 90% confluency, HEK293 cells were trypsinized, counted, and plated with 2 mL media at 2 × 10^6 cells per well on a tissue-culture-treated, 6-well plate. At the appropriate number of hours before reaching ∼90% confluency, cells were treated with DMSO solutions of the appropriate compounds (final concentration 0.5% DMSO per well). Upon reaching 90% confluency, typically 72 h, culture media were removed and the cells were washed with cold Dulbecco’s phosphate-buffered saline (DPBS). Lysis buffer, composed of cell lysis buffer (Cell Signaling Technology, 9803), protease inhibitor cocktail (Cell Signaling Technology, 5872), and 1 mM phenylmethylsulfonylfluoride, was added to each well, and the plates were rocked at 4 °C for 20 min. Cells were then scraped from the bottom of the plates, and the supernatant was collected after spinning down at 14,000g at 4 °C for 10 min and frozen at −80 °C. Lysates were thawed on ice, and the total protein concentration was measured using a Pierce bicinchoninic acid protein assay (Thermo Fisher Scientific, 23225). […] The immunoblot was then analyzed using the ImageJ software as an 8-bit image. The brightness and contrast of the image were adjusted, and the integrated density was calculated for each protein band using the gel lane analysis tool. Relative hCAII expression was calculated by normalizing the hCAII/β-actin ratio in compound-treated wells to the hCAII/β-actin ratio in vehicle (DMSO)-treated wells and indicated as “hCAII Abundance (% DMSO)”.

[3] = enzyme concentration of 40 nM, read-out: IC50, below the detection limit of the assay
[4] = recombinant hCAII 40 nM, p-nitrophenyl acetate 500 μM, pH 8.0, 95% confidence interval, read-out: IC50 (nM), hCAII inhibition activity (Table S1)

Row | SMILES | IC50 (hCAII [1]; [3]) [nM] | IC50 (hCAII [1]; [4]) [nM] | protein degradation quantified by western blot (hCAII [2]) [%] | activity in single-point screen (hCAII degradation) (hCAII [2])
1 | NS(=O)(=O)c1ccc(C(=O)NCCCOCCCCOCCCNc2cccc3c2C(=O)N(C2CCC(=O)NC2=O)C3=O)cc1 (centres unmarked) [Compound 4, N-(3-(4-(3-((2-(2,6-Dioxopiperidin-3-yl)-1,3-dioxoisoindolin-4-yl)amino)propoxy)butoxy)propyl)-4-sulfamoylbenzamide] | ≤ 20 | ≤ 20 | 64 | active
2 | NS(=O)(=O)c1ccc(C(=O)NCCCOCCOCCOCCCNc2cccc3c2C(=O)N(C2CCC(=O)NC2=O)C3=O)cc1 (centres unmarked) [Compound 5, N-(3-(2-(2-(3-((2-(2,6-Dioxopiperidin-3-yl)-1,3-dioxoisoindolin-4-yl)amino)propoxy)ethoxy)ethoxy)propyl)-4-sulfamoylbenzamide] | ≤ 20 | ≤ 20 | 85 | active
